Laboratory results from patent US20260070945A1, “MACROCYCLIC IMMUNOMODULATORS” (Bristol-Myers Squibb Company, priority 2022, published 2026).
*1 amine or outer side, *2 acyl side, *3 side chain or, on linkers, in order; H or OH if unused. Where a SMILES comes first, the peptide text is derived from it. Bridges are numbered along the chain shown (N, C = ends). [ ]: non-standard residue; d: D form. The star is where a group is joined. ξ: configuration not given here. Phe(3-CF3) = N[C@@H](Cc1cccc(C(F)(F)F)c1)C(=O)O; Ala(morpholin-4-yl) = N[C@@H](CN1CCOCC1)C(=O)O; Phe(4-CONH2) = NC(=O)c1ccc(C[C@H](N)C(=O)O)cc1; Phe(4-COOH) = N[C@@H](Cc1ccc(C(=O)O)cc1)C(=O)O; Bip = N[C@@H](Cc1ccc(-c2ccccc2)cc1)C(=O)O; Phe(3-Me) = Cc1cccc(C[C@H](N)C(=O)O)c1; γGlu = O=C(O)[C@H](CCC(=O)[*:2])N[*:1]; βAsp = O=C(O)[C@H](CC(=O)[*:2])N[*:1]; NH(CH2)12COOH = O=C(O)CCCCCCCCCCCCN*; Val(3-OH) = CC(C)(O)[C@H](N)C(=O)O; 4Pal = N[C@@H](Cc1ccncc1)C(=O)O; Cha = N[C@@H](CC1CCCCC1)C(=O)O; Cit = NC(=O)NCCC[C@H](N)C(=O)O; Ile(3ξ) = CCC(C)[C@H](N)C(=O)O; Thr(3ξ) = CC(O)[C@H](N)C(=O)O; Carboxymethyl = O=C(O)C*; NMeA = CN[C@@H](C)C(=O)O; Orn = NCCC[C@H](N)C(=O)O; Aun = NCCCCCCCCCCC(=O)O; Dab = NCC[C@H](N)C(=O)O; AEEA = NCCOCCOCC(=O)O

These molecules were tested against T1, PD-1/PD-L1 interaction (PE-labeled human PD-L1-Ig binding to Jurkat cell line over-expressing human PD-1) (Homo sapiens, UniProt Q15116) (assay: Jurkat-PD-1 Cell Binding High-Content Screening Assay (CBA)). Settings: Jurkat-hPD-1 cells, PE-labeled PD-L1-Ig 20 nM final; read-out: Jurkat HPD1 PDL1 IC50.
T1 construct: expressed in transfected cells; host or cells: Jurkat
Outline: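 High-content imaging read-out of PE-PD-L1-Ig binding (20 nM final, 1 h) to Jurkat-hPD-1 cells, after 2 h compound exposure at 37 °C in DMEM with 10% FCS. Nuclei counterstained with Hoechst 33342 after paraformaldehyde fixation.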

T1 sequence (Q15116 25-288): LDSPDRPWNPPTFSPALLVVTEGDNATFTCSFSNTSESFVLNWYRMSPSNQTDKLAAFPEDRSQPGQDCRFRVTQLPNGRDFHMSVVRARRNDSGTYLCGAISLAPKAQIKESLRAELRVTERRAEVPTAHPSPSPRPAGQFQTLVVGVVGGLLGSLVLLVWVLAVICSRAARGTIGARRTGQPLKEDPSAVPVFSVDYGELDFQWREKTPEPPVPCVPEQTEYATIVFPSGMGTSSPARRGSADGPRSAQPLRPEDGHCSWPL

| SMILES | IC50 |
| --- | --- |
| COC[C@@H]1NC(=O)CSC[C@@H](C(=O)N[C@@H](CCN)C(=O)NCCOCCOCC(=O)N[C@@H](CCC(=O)NCCOCCOCC(=O)NCCCCCCCCCCCCC(=O)O)C(=O)O)NC(=O)[C@H](CO)NC(=O)[C@H](C(C)(C)O)NC(=O)[C@H](CC2CCCCC2)NC(=O)[C@H](CCN)NC(=O)[C@@H](CC(C)C)NC(=O)[C@H](C)N(C)C(=O)[C@H](CCCNC(N)=O)NC(=O)[C@H](Cc2ccc(-c3ccccc3)cc2)NC(=O)[C@H](Cc2ccc(C(=O)O)cc2)NC(=O)[C@H](Cc2cccc(C(F)(F)F)c2)NC(=O)[C@H](CC(=O)O)NC(=O)[C@H](Cc2ccc(OCC(=O)O)cc2)NC1=O [Example 1181] ({CH2CO}-S(Me)Y(Carboxymethyl)D[Phe(3-CF3)][Phe(4-COOH)][Bip][Cit][NMeA][dL][Dab][Cha][Val(3-OH)]SC[Dab][AEEA][γGlu][AEEA]-{NH(CH2)12COOH}; thioether N-14) | 48.5 nM |
| CC(C)C[C@H]1NC(=O)[C@H](C)N(C)C(=O)[C@H](Cc2ccc(OCC(=O)O)cc2)NC(=O)[C@H](Cc2ccc(-c3ccccc3)cc2)NC(=O)[C@H](Cc2ccc(OCC(=O)O)cc2)NC(=O)[C@H](Cc2c[nH]c3ccccc23)NC(=O)[C@H](CC(=O)O)NC(=O)[C@H](Cc2ccncc2)NC(=O)[C@H](Cc2ccc(OCC(=O)O)cc2)NC(=O)CSC[C@@H](C(=O)N[C@@H](CCN)C(=O)NCCOCCOCC(=O)NCCCCCCCCCCC(=O)O)NC(=O)[C@H]([C@@H](C)O)NC(=O)[C@H](C(C)C)NC(=O)[C@H](CC2CCCCC2)NC(=O)[C@H](CCN)NC1=O [Example 1381] ({CH2CO}-Y(Carboxymethyl)[4Pal]DWY(Carboxymethyl)[Bip]Y(Carboxymethyl)[NMeA][dL][Dab][Cha]VTC[Dab][AEEA][Aun]-OH; thioether N-14) | 27.4 nM |
| Cc1cccc(C[C@@H]2NC(=O)[C@H](CC(=O)O)NC(=O)[C@H](Cc3ccc(C(=O)O)cc3)NC(=O)[C@H](Cc3ccc(OCC(=O)O)cc3)NC(=O)CSC[C@@H](C(=O)NCC(=O)N[C@@H](CC(=O)NCCOCCOCC(=O)N[C@@H](CCC(=O)O)C(=O)NCCOCCOCC(=O)NCCCCCCCCCCC(=O)O)C(=O)O)NC(=O)[C@H](CO)NC(=O)[C@H](C(C)C)NC(=O)[C@H](CC(C)C)NC(=O)[C@H](CC(N)=O)NC(=O)[C@@H](CC(C)C)NC(=O)[C@H](C)N(C)C(=O)[C@H](C(C)C)NC(=O)[C@H](Cc3ccc(-c4ccccc4)cc3)NC(=O)[C@H](CC(C)C)NC2=O)c1 [Example 1023] ({CH2CO}-Y(Carboxymethyl)[Phe(4-COOH)]D[Phe(3-Me)]L[Bip]V[NMeA][dL]NLVSCG[βAsp][AEEA]E[AEEA][Aun]-OH; thioether N-14) | 119 nM |
| CC(C)C[C@@H]1NC(=O)[C@H](Cc2c[nH]c3ccccc23)NC(=O)[C@H](CC(=O)O)NC(=O)[C@H](Cc2ccc(C(=O)O)cc2)NC(=O)[C@H](Cc2ccc(OCC(=O)O)cc2)NC(=O)CSC[C@@H](C(=O)NCC(=O)N[C@@H](CCC(=O)O)C(=O)NCC(=O)NCCCCCCCCCCC(=O)O)NC(=O)[C@H](CO)NC(=O)[C@H](C(C)C)NC(=O)[C@H](CC2CCCCC2)NC(=O)[C@H](CCN)NC(=O)[C@@H](CC(C)C)NC(=O)[C@H](C)N(C)C(=O)[C@H](C(C)C)NC(=O)[C@H](Cc2ccc(-c3ccccc3)cc2)NC1=O [Example 1032] ({CH2CO}-Y(Carboxymethyl)[Phe(4-COOH)]DWL[Bip]V[NMeA][dL][Dab][Cha]VSCGEG[Aun]-OH; thioether N-14) | 15.9 nM |
| Cc1cccc(C[C@@H]2NC(=O)[C@H](CC(=O)O)NC(=O)[C@H](Cc3ccncc3)NC(=O)[C@H](Cc3ccc(OCC(=O)O)cc3)NC(=O)CSC[C@@H](C(=O)NCC(=O)N[C@@H](CCC(=O)NCCOCCOCC(=O)N[C@@H](CCC(=O)NCCOCCOCC(=O)NCCCCCCCCCCC(=O)O)C(=O)O)C(=O)O)NC(=O)[C@H](CO)NC(=O)[C@H](C(C)C)NC(=O)[C@H](CC(C)C)NC(=O)[C@H](CC(N)=O)NC(=O)[C@@H](CC(C)C)NC(=O)[C@H](C)N(C)C(=O)[C@H](C(C)C)NC(=O)[C@H](Cc3ccc(-c4ccccc4)cc3)NC(=O)[C@H](CC(C)C)NC2=O)c1 [Example 1016] ({CH2CO}-Y(Carboxymethyl)[4Pal]D[Phe(3-Me)]L[Bip]V[NMeA][dL]NLVSCG[γGlu][AEEA][γGlu][AEEA][Aun]-OH; thioether N-14) | 29.8 nM |
| CC(=O)NCCCC[C@@H]1NC(=O)[C@H](C(C)(C)O)NC(=O)[C@H](CC2CCCCC2)NC(=O)[C@H](CCN)NC(=O)[C@@H](CC(C)C)NC(=O)[C@H](C)N(C)C(=O)[C@H](CCC(N)=O)NC(=O)[C@H](Cc2ccc(-c3ccccc3)cc2)NC(=O)[C@H](Cc2ccc(C(=O)O)cc2)NC(=O)[C@H](Cc2cccc(C(F)(F)F)c2)NC(=O)[C@H](CC(=O)O)NC(=O)[C@H](Cc2ccc(OCC(=O)O)cc2)NC(=O)[C@H](CN2CCOCC2)NC(=O)CSC[C@@H](C(=O)N[C@@H](CCN)C(=O)NCCCCCCCCCCCCC(=O)O)NC1=O [Example 1153] ({CH2CO}-[Ala(morpholin-4-yl)]Y(Carboxymethyl)D[Phe(3-CF3)][Phe(4-COOH)][Bip]Q[NMeA][dL][Dab][Cha][Val(3-OH)]K(Ac)C[Dab]-{NH(CH2)12COOH}; thioether N-14) | 12.9 nM |
| CC(C)C[C@@H]1NC(=O)[C@H](Cc2c[nH]c3ccccc23)NC(=O)[C@H](CC(=O)O)NC(=O)[C@H](Cc2ccc(C(=O)O)cc2)NC(=O)[C@H](Cc2ccc(OCC(=O)O)cc2)NC(=O)CSC[C@@H](C(=O)NCC(=O)N[C@@H](CCC(=O)O)C(=O)NCCCCCCCCCCC(=O)O)NC(=O)[C@H](CO)NC(=O)[C@H](C(C)C)NC(=O)[C@H](CC2CCCCC2)NC(=O)[C@H](CCN)NC(=O)[C@@H](CC(C)C)NC(=O)[C@H](C)N(C)C(=O)[C@H](C(C)C)NC(=O)[C@H](Cc2ccc(-c3ccccc3)cc2)NC1=O [Example 1040] ({CH2CO}-Y(Carboxymethyl)[Phe(4-COOH)]DWL[Bip]V[NMeA][dL][Dab][Cha]VSCGE[Aun]-OH; thioether N-14) | 14 nM |

Next, values leading:

| IC50 | SMILES |
| --- | --- |
| 10 nM | CCC(C)[C@@H]1NC(=O)[C@H](Cc2ccc(-c3ccccc3)cc2)NC(=O)[C@H](C(C)C)NC(=O)[C@H](Cc2c[nH]c3ccccc23)NC(=O)[C@H](CC(=O)O)NC(=O)[C@H](Cc2ccc(OCC(=O)O)cc2)NC(=O)[C@H](C(C)O)NC(=O)CSC[C@@H](C(=O)N[C@H](CC(N)=O)C(=O)NCCCCCCCCCCC(=O)O)NC(=O)[C@H](CCCCN)NC(=O)[C@H](C(C)C)NC(=O)[C@H](CC2CCCCC2)NC(=O)[C@H](CCN)NC(=O)[C@@H](CC(C)C)NC(=O)[C@H](C)N(C)C1=O (stereo partly drawn) [Example 2210] ({CH2CO}-[Thr(3ξ)]Y(Carboxymethyl)DWV[Bip][Ile(3ξ)][NMeA][dL][Dab][Cha]VKC[dN][Aun]-OH; thioether N-14) |
| 10.9 nM | CC(=O)NCCCC[C@@H]1NC(=O)[C@H](Cc2ccc(-c3ccccc3)cc2)NC(=O)[C@H](CC(C)C)NC(=O)[C@H](Cc2cccc(C)c2)NC(=O)[C@H](CC(=O)O)NC(=O)[C@H](Cc2ccc(OCC(=O)O)cc2)NC(=O)[C@H](Cc2ccc(OCC(=O)O)cc2)NC(=O)CSC[C@@H](C(=O)NCCOCCOCC(=O)NCCCCCCCCCCC(=O)O)NC(=O)[C@H](CCCCN)NC(=O)[C@H](C(C)C)NC(=O)[C@H](CC2CCCCC2)NC(=O)[C@H](CCN)NC(=O)[C@@H](CC(C)C)NC(=O)[C@H](C)N(C)C1=O [Example 2223] ({CH2CO}-Y(Carboxymethyl)Y(Carboxymethyl)D[Phe(3-Me)]L[Bip]K(Ac)[NMeA][dL][Dab][Cha]VKC[AEEA][Aun]-OH; thioether N-14) |
| 10.4 nM | CC(C)C[C@@H]1NC(=O)[C@H](Cc2c[nH]c3ccccc23)NC(=O)[C@H](CC(=O)O)NC(=O)[C@H](Cc2ccc(O)cc2)NC(=O)[C@H](Cc2ccncc2)NC(=O)CSC[C@@H](C(=O)N[C@@H](CCCN)C(=O)NCCOCCOCC(=O)NCCCCCCCCCCC(=O)O)NC(=O)[C@H](CO)NC(=O)[C@H](C(C)C)NC(=O)[C@H](CC2CCCCC2)NC(=O)[C@H](CCN)NC(=O)[C@@H](CC(C)C)NC(=O)[C@H](C)N(C)C(=O)[C@H](C(C)C)NC(=O)[C@H](Cc2ccc(-c3ccccc3)cc2)NC1=O [Example 2147] ({CH2CO}-[4Pal]YDWL[Bip]V[NMeA][dL][Dab][Cha]VSC[Orn][AEEA][Aun]-OH; thioether N-14) |
| 9.7 nM | Cc1cccc(C[C@@H]2NC(=O)[C@H](CC(=O)O)NC(=O)[C@H](Cc3ccc(OCC(=O)O)cc3)NC(=O)[C@H](CCCNC(=N)N)NC(=O)CSC[C@@H](C(=O)N[C@@H](CCN)C(=O)NCCCCCCCCCCC(=O)O)NC(=O)[C@H](C(C)O)NC(=O)[C@H](C(C)C)NC(=O)[C@H](CC3CCCCC3)NC(=O)[C@H](CCN)NC(=O)[C@@H](CC(C)C)NC(=O)[C@H](C)N(C)C(=O)[C@H](CCC(N)=O)NC(=O)[C@H](Cc3ccc(-c4ccccc4)cc3)NC(=O)[C@H](C(C)C)NC2=O)c1 (stereo partly drawn) [Example 2233] ({CH2CO}-RY(Carboxymethyl)D[Phe(3-Me)]V[Bip]Q[NMeA][dL][Dab][Cha]V[Thr(3ξ)]C[Dab][Aun]-OH; thioether N-14) |

Same assay, conditions: PE-labeled PD-L1-Ig 20 nM final, Jurkat-hPD-1 cells; read-out: Jurkat HPD1 PDL1 IC50

| IC50 | SMILES |
| --- | --- |
| 1.7 nM | CC(=O)NCCCC[C@@H]1NC(=O)[C@H](C(C)O)NC(=O)[C@H](CC2CCCCC2)NC(=O)[C@H](CCN)NC(=O)[C@@H](CC(C)C)NC(=O)[C@H](C)N(C)C(=O)[C@H](CCC(=O)O)NC(=O)[C@H](Cc2ccc(-c3ccccc3)cc2)NC(=O)[C@H](Cc2ccc(C(N)=O)cc2)NC(=O)[C@H](Cc2cccc(C)c2)NC(=O)[C@H](CC(=O)O)NC(=O)[C@H](Cc2ccc(C(=O)O)cc2)NC(=O)[C@H](Cc2ccc(OCC(=O)O)cc2)NC(=O)CSC[C@@H](C(=O)N[C@@H](CCN)C(=O)NCCOCCOCC(=O)NCCCCCCCCCCC(=O)O)NC1=O (stereo partly drawn) [Example 2534] ({CH2CO}-Y(Carboxymethyl)[Phe(4-COOH)]D[Phe(3-Me)][Phe(4-CONH2)][Bip]E[NMeA][dL][Dab][Cha][Thr(3ξ)]K(Ac)C[Dab][AEEA][Aun]-OH; thioether N-14) |
